This note sets out measurements from patent US10227323B2, “Glucosylceramide synthase inhibitors for the treatment of diseases” (BIOMARIN PHARMACEUTICAL INC., priority 2013, dated 2019).

Bounds are passed on as bounds.

This assay addresses T1, GCS (Canis lupus familiaris, UniProt A0A8I3MXG6).
T1 sequence (A0A8I3MXG6 1-394): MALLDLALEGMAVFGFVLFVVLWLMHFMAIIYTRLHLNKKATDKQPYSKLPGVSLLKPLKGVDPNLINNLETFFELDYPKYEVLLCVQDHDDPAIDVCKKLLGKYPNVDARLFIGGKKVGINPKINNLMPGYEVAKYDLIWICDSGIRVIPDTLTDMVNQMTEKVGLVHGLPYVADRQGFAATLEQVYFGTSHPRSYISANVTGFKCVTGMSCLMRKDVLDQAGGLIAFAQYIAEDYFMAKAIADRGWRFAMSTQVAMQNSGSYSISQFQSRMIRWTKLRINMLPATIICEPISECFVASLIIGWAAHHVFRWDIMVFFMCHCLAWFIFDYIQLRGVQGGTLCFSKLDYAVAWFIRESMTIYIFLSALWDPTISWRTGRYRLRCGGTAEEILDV
As to the kind of experiment: Assay 1: GCS Enzymatic Assay (MDCK cell lysate, C6-NBD-Ceramide, LC/MS). It counts as biochemical, canine. Conditions: Table 2; data without asterisk; read-out: IC50 (nM) generated from Assay 1. The method in brief:
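LC/MS/MS measurement of glucosylceramide and NBD-ceramide after a 1 h, 37 °C reaction with 100 μM UDP-glucose and 10 μM C6-NBD-ceramide gave IC50s or percent inhibition.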

By IC50 is commonly meant the concentration that inhibits the measured activity by half.

On to `CC(C)n1ccc2ccc(C(=O)C(=O)N[C@H](CN3CCCC3)[C@H](O)c3ccc(OC4CC4)c(Cl)c3)cc21` [Example 332, N-((1R,2R)-1-(3-chloro-4-cyclopropoxyphenyl)-1-hydroxy-3-(pyrrolidin-1-yl)propan-2-yl)-2-(1-isopropyl-1H-indo1-6-yl)-2-oxoacetamide], for which the IC50 was < 50 nM.

As for `O=C(N[C@H](CN1CCCC1)[C@H](O)c1ccc(OC2CC2)cc1)C(=O)c1ccc(-c2ccc(F)cc2)cc1` [Example 333, N-((1R,2R)-1-(4-cyclopropoxyphenyl)-1-hydroxy-3-(pyrrolidin-1-yl)propan-2-yl)-2-(4′-fluoro-[1,1′-biphenyl]-4-yl)-2-oxoacetamide], the IC50 is < 50 nM.

Regarding `Cc1nn(C(C)C)c2cc(-c3ccc(C(=O)C(=O)N[C@H](CN4CCCC4)[C@H](O)c4ccc(OC5CC5)c(Cl)c4)cc3)ccc12` [Example 334, N-((1R,2R)-1-(3-chloro-4-cyclopropoxyphenyl)-1-hydroxy-3-(pyrrolidin-1-yl)propan-2-yl)-2-(4-(1-isopropyl-3-methyl-1H-indazol-6-yl)phenyl)-2-oxoacetamide], the IC50 was < 50 nM.

Consider `Cc1c2ccc(-c3ccc(C(=O)C(=O)N[C@H](CN4CCCC4)[C@H](O)c4cc(F)c5c(c4)OCCO5)cc3)cc2nn1C(C)C` [Example 335, N-((1R,2R)-1-(8-fluoro-2,3-dihydrobenzo[b][1,4]dioxin-6-yl)-1-hydroxy-3-(pyrrolidin-1-yl)propan-2-yl)-2-(4-(2-isopropyl-3-methyl-2H-indazol-6-yl)phenyl)-2-oxoacetamide], for which the IC50 was < 50 nM.

For the compound `Cc1c2ccc(-c3ccc(C(=O)C(=O)N[C@H](CN4CCCC4)[C@H](O)c4ccc(OC5CC5)c(Cl)c4)cc3)cc2nn1C(C)C` [Example 336, N-((1R,2R)-1-(3-chloro-4-cyclopropoxyphenyl)-1-hydroxy-3-(pyrrolidin-1-yl)propan-2-yl)-2-(4-(2-isopropyl-3-methyl-2H-indazol-6-yl)phenyl)-2-oxoacetamide], the IC50 is < 50 nM.

Regarding `Cc1nn(C(C)C)c2cc(-c3ccc(C(=O)C(=O)N[C@H](CN4CCCC4)[C@H](O)c4cc(F)c5c(c4)OCCO5)cc3)ccc12` [Example 337, N-((1R,2R)-1-(8-fluoro-2,3-dihydrobenzo[b][1,4]dioxin-6-yl)-1-hydroxy-3-(pyrrolidin-1-yl)propan-2-yl)-2-(4-(1-isopropyl-3-methyl-1H-indazol-6-yl)phenyl)-2-oxoacetamide], the IC50 is < 50 nM.

For `O=C(N[C@H](CN1CCC1)[C@H](O)c1ccc(OC2CC2)c(Cl)c1)C(=O)c1cc2ccc(Cl)cc2s1` [Example 338, N-((1R,2R)-3-(azetidin-1-yl)-1-(3-chloro-4-cyclopropoxyphenyl)-1-hydroxypropan-2-yl)-2-(6-chlorobenzo[b]thiophen-2-yl)-2-oxoacetamide], the IC50 is < 50 nM.

Consider `CC(C)c1ccc(-c2ccc(C(=O)C(=O)N[C@H](CN3CCCC3)[C@H](O)c3ccc(OC4CC4)c(Cl)c3)cc2)cc1` [Example 339, N-((1R,2R)-1-(3-chloro-4-cyclopropoxyphenyl)-1-hydroxy-3-(pyrrolidin-1-yl)propan-2-yl)-2-(4′-isopropyl-[1,1′-biphenyl]-4-yl)-2-oxoacetamide], for which the IC50 was < 50 nM.

Take `Cc1nn(C)c2cc(-c3ccc(C(=O)C(=O)N[C@H](CN4CCCC4)[C@H](O)c4ccc(OC5CC5)c(Cl)c4)cc3)ccc12` [Example 340, N-((1R,2R)-1-(3-chloro-4-cyclopropoxyphenyl)-1-hydroxy-3-(pyrrolidin-1-yl)propan-2-yl)-2-(4-(1,3-dimethyl-1H-indazol-6-yl)phenyl)-2-oxoacetamide]: the IC50 was < 50 nM.

Turning to `Cc1nn(C)c2cc(-c3ccc(C(=O)C(=O)N[C@H](CN4CCCC4)[C@H](O)c4cc(F)c5c(c4)OCCO5)cc3)ccc12` [Example 341, 2-(4-(1,3-dimethyl-1H-indazol-6-yl)phenyl)-N-((1R,2R)-1-(8-fluoro-2,3-dihydrobenzo[b][1,4]dioxin-6-yl)-1-hydroxy-3-(pyrrolidin-1-yl)propan-2-yl)-2-oxoacetamide], the IC50 was < 50 nM.

On to `Cc1c2ccc(-c3ccc(C(=O)C(=O)N[C@H](CN4CCCC4)[C@H](O)c4cc(F)c5c(c4)OCCO5)cc3)cc2nn1C` [Example 342, 2-(4-(2,3-dimethyl-2H-indazol-6-yl)phenyl)-N-((1R,2R)-1-(8-fluoro-2,3-dihydrobenzo[b][1,4]dioxin-6-yl)-1-hydroxy-3-(pyrrolidin-1-yl)propan-2-yl)-2-oxoacetamide], for which the IC50 was < 50 nM.

On to `O=C(N[C@H](CN1CCCC1)[C@H](O)c1ccc(OC2CC2)c(Cl)c1)C(=O)c1ccc(N2CCCC2)cc1` [Example 343, N-((1R,2R)-1-(3-chloro-4-cyclopropoxyphenyl)-1-hydroxy-3-(pyrrolidin-1-yl)propan-2-yl)-2-oxo-2-(4-(pyrrolidin-1-yl)phenyl)acetamide], for which the IC50 was < 50 nM.

Regarding `COc1cc([C@@H](O)[C@@H](CN2CCCC2)NC(=O)C(=O)c2ccc(-c3ccc(F)cc3)cc2)cc(F)c1OC(C)C` [Example 344, N-((1R,2R)-1-(3-fluoro-4-isopropoxy-5-methoxyphenyl)-1-hydroxy-3-(pyrrolidin-1-yl)propan-2-yl)-2-(4′-fluoro-[1,1′-biphenyl]-4-yl)-2-oxoacetamide], the IC50 is < 50 nM.

In the case of `CC(C)n1ccc2ccc(-c3ccc(C(=O)C(=O)N[C@H](CN4CCCC4)[C@H](O)c4cc(F)c5c(c4)OCCO5)cc3)cc21` [Example 345, N-((1R,2R)-1-(8-fluoro-2,3-dihydrobenzo[b][1,4]dioxin-6-yl)-1-hydroxy-3-(pyrrolidin-1-yl)propan-2-yl)-2-(4-(1-isopropyl-1H-indol-6-yl)phenyl)-2-oxoacetamide], the IC50 was < 50 nM.

For the compound `CC(C)n1ccc2ccc(-c3ccc(C(=O)C(=O)N[C@H](CN4CCCC4)[C@H](O)c4ccc(OC5CC5)c(Cl)c4)cc3)cc21` [Example 346, N-((1R,2R)-1-(3-chloro-4-cyclopropoxyphenyl)-1-hydroxy-3-(pyrrolidin-1-yl)propan-2-yl)-2-(4-(1-isopropyl-1H-indo1-6-yl)phenyl)-2-oxoacetamide], the IC50 is < 50 nM.

With `Cc1c2ccc(-c3ccc(C(=O)C(=O)N[C@H](CN4CCCC4)[C@H](O)c4ccc(OC5CC5)c(Cl)c4)cc3)cc2nn1C` [Example 347, N-((1R,2R)-1-(3-chloro-4-cyclopropoxyphenyl)-1-hydroxy-3-(pyrrolidin-1-yl)propan-2-yl)-2-(4-(2,3-dimethyl-2H-indazol-6-yl)phenyl)-2-oxoacetamide], the IC50 was < 50 nM.

Take `COc1cc([C@@H](O)[C@@H](CN2CCCC2)NC(=O)C(=O)c2cc3ccc(Cl)cc3s2)cc(F)c1OC(C)C` [Example 348, 2-(6-chlorobenzo[b]thiophen-2-yl)-N-((1R,2R)-1-(3-fluoro-4-isopropoxy-5-methoxyphenyl)-1-hydroxy-3-(pyrrolidin-1-yl)propan-2-yl)-2-oxoacetamide]: the IC50 was 50 to 5000 nM.

Consider `O=C(N[C@H](CN1CCCC1)[C@H](O)c1ccc(OC2CC2)c(Cl)c1)C(=O)c1ccc(-c2ccn(C3CC3)n2)cc1` [Example 349, N-((1R,2R)-1-(3-chloro-4-cyclopropoxyphenyl)-1-hydroxy-3-(pyrrolidin-1-yl)propan-2-yl)-2-(4-(1-cyclopropyl-1H-pyrazol-3-yl)phenyl)-2-oxoacetamide], for which the IC50 is < 50 nM.
